Values of other authors as cited in patent US10251778B2, “Therapeutics dispensing device and methods of making same” (Baylor College of Medicine, priority 2012, dated 2019).
Where a name gives a salt, the structure may show the parent alone.

Assays:
[1] = not given; remark: listed apart in the source
[2] = Acrylate Polymer Nanosuspensions
[3] = system: human cytomegalovirus (HCMV); conditions: Albumin Nanoparticles
[4] = in vitro
[5] = Poly(butyl)-cyano acrylate Nanopartilces

## CC[C@@H]1C(=O)OC[C@@H]1Cc1cncn1C [Pilocarpine]
Microemulsions
  Decreased IOP: Decreased IOP by 25%
[5]
  decrease in IOP: in IOP by 22%
[1]; [5]
  Result (response): Enhanced mitotic response and decrease

## CC(C(=O)O)c1ccc(-c2ccccc2)c(F)c1 (stereo not drawn) [Flurbiprofen]
[2]
  Result (drug levels in aqueous humour): Increased drug levels in aqueous humour

## CC(=O)Nc1nnc(S(N)(=O)=O)s1 [Acetazolamide]
Liposomes
  Result (IOP): Produced a marked decrease in IOP

## Nc1nc2c(ncn2COC(CO)CO)c(=O)[nH]1 [GCV]
[3]
  Result (antiviral activity): Increased antiviral aciivity against human

## CC[C@@H]1C(=O)OC[C@@H]1Cc1cncn1C [Pilocarpine nitrate]
[1]; Dendrimers
  Result (miotic activity): Prolonged miotic activity

## CC[C@@H]1C(=O)OC[C@@H]1Cc1cncn1C [Pilocarpine HCl]
[1]; Liposomes
  Result (response and ocular bioavailability): Increased mitotic response and ocular

## CC[C@@H]1C(=O)OC[C@@H]1Cc1cncn1C [pilocarpine base, pilocarpine]
[4]
  transcorneal penetration relative to the ionized form: 2-3 times
